Assay results from patent US11440870B2, “Cannabidiolic acid esters compositions and uses thereof” (Yissum Research Development Company of the Hebrew …, priority 2017, dated 2022).

System: anxiety-like responding in rats
Test: Light-dark box emergence test after foot shock stress (anxiety-like responding)
Assay type: in vivo, male Sprague-Dawley rats
Settings: WAY100635 i.p. 15 min before VEH; P<0.05
Excerpt: Animal procedures complied with the Canadian Council on Animal Care, and the protocols were approved by the Institutional Animal Care Committee at University of Guelph. Animal studies are reported in compliance with the ARRIVE guidelines (Kilkenny et al., 2010; McGrath and Lilley, 2015). A total of 200 näive male Sprague-Dawley rats, obtained from Charles River Laboratories (St Constant, Quebec), were used for all in vivo studies. Rats were individually housed (for acute nausea studies) or pair-housed [for anticipatory nausea and light-dark emergence studies] in home cages made of opaque white plastic (48×26×20 cm), containing bed-o-cob bedding from Harlan Laboratories, Inc. (Mississauga, Ontario), a brown paper towel, and Crinkl'Nest™ from The Andersons, Inc. (Maumee, Ohio). Additionally, in the home cage, rats were provided with a soft white paper container that was 14 cm long and 12 cm in diameter. All rats were subjected to an ambient temperature of 21° C. and a 12/12 h light-dark schedule (lights off at 07:00 h) and maintained on food (Highland Rat Chow [8640]) and water ad libitum. For the acute and anticipatory nausea studies, their body weights ranged from 263 to 329 g on the day of conditioning. For the light-dark emergence studies, their body weights ranged from 320 to 387 g on the day of test.
For the in vivo experiment 3, anxiolytic-like responding was evaluated using the light-dark emergence apparatus, which consisted of an opaque white plastic rectangular box that was divided into two compartments: a small (25 cm wide×20.5 cm long×20.5 cm high) enclosed dark box built of opaque black plastic with a door (8 cm wide×10 cm high) leading to a larger (39.5 cm long×25 cm wide) open lit box. The open lit box was illuminated by one lamp (with a 60 W bulb, 180 lux in the light chamber) positioned 115 cm above the center of the lit box. A video camera was mounted over the top of the light-dark box, and the video tapes were analyzed by the Ethovision software (Noldus Information Technology, Leesburg, Va., USA) for the duration of time spent in the light box for the 5 min test. For the foot shock (FS) session, the rats were placed in sound attenuating MED Associates fear conditioning chambers (St. Albans, Vt., USA). The 6 min FS session consisted of six 0.8 mA foot shocks delivered 1 min apart. Each 0.5 s shock was preceded by a 30 s auditory tone (90 Db, 5000 Hz) as described by Bluett et al. (2014).
The effect of CBDA and HU-580 on anxiety-like responding was evaluated using the light-dark box emergence test following either foot shock stress or no foot shock (No FS) stress. […]

COc1ccccc1N1CCN(CCN(C(=O)C2CCCCC2)c2ccccn2)CC1 [WAY100635, reference compound]
Time spent in the light box after foot shock (FS) stress vs No FS: spent less time in the light box following FS stress than following No FS stress
